This note sets out measurements from patent US20120329865A1, “MOLECULES RELATED hERG ION [sequence] AND THE USE THEREOF” (priority 2009, published 2012).

Entries after “also recorded” stand apart in the source; their conditions may differ.

For data set [1], the target named is T1, hERG ion channels (Homo sapiens, UniProt Q12809). In words: Label-free RWG biosensor (Epic) DMR assay, agonism mode, HEK-hERG cells stably expressing hERG. Particulars: 10 micromolar.
Text: (§1) Using the RWG biosensor Corning® Epic® system, all compounds were systematically characterized for their ability to modulate hERG ion channels in live cells. The Epic® system consists of a temperature-control unit, an optical detection unit, with an on-board liquid handling unit with robotics, or an external liquid accessory system with robotics. The detection unit is centered on integrated fiber optics, and enables kinetic measures of cellular responses with a time interval of ˜7 or 15 sec. The compound solutions were introduced by using either the on-board liquid handling unit, or the external liquid accessory system; both of which use conventional pippetting system.
(§2) Epic® wavelength interrogation system (Corning Inc., Corning, N.Y.) was used for whole cell sensing. This system consists of a temperature-control unit, an optical detection unit, and an on-board liquid handling unit with robotics. The detection unit is centered on integrated fiber optics, and enables kinetic measures of cellular responses with a time interval of ˜15 sec.
(§3) Cells were plated in 384-well Epic® cell culture treated plate (Corning Cat#5040) 16-20 hours before assay (15000 cells/well for HEK293 and HEK-hERG cells, 30000 cells/well for HT29 cells). For both HEK-hERG and its parental HEK293 cells, each well was coated with 10 μl 5 μg/ml fibronectin. One hour before assay, cells were washed twice on a BioTek ELx405 Select washer with Hank's Balanced Salt Solution (HBSS) containing 20 mM Hepes. Cells were incubated in 40 μl/well HBSS at 28° C. inside the Epic system for one hour. For each assay, a 2-min baseline was initiated, followed by addition of 10 μl compound solutions (5×) and the cell responses were recorded continuously for one hour.
(§4) All studies were carried out at a controlled temperature (28° C.). At least two independent sets of experiments, each with at least three replicates, were performed. […] All dose-dependent responses were analyzed using non-linear regression method with the GraphPad Prism 5.
(§5) In a specific approach, any compound can be profiled in three different types of cells, HT29, HEK-hERG, and HEK-293 cells, in both agonism and antagonism modes. The human colon cancerous cell line HT-29 is known to endogenously express hERG channels. HEK293 is a native cell line without endogenously expressed hERG channels, while HEK-hERG is an engineered HEK293 cell having stably expressed hERG channels.
The next data set addresses hERG channel (Homo sapiens, UniProt Q12809). In words: Automated patch clamp recording using IonWorks, CHO-hERG cells. Particulars: 50 micromolar; tail current at -35 mV after +40 mV depolarization. The procedure: CHO-K1 cells stably expressing hERG channel (CHO-hERG) were cultured in T175 flask till about 70% confluent. Cells were washed twice with PBS, then 2.5 ml 0.25% Trypsin/EDTA was mixed with 2.5 ml PBS and added to the T175 flask. Cells were incubated about 2 minutes with the diluted Trypsin/EDTA solution at 37° C., then were continuously incubated about 3 minutes at room temperature. 20 ml fresh medium were added to suspend the cells and transfer to a 50 ml tube. Cells were centrifuged down at 750 rpm for 5 minutes. The extra medium was removed and cells were resuspended in 6 ml External Buffer (137 mM NaCl, 4 mM KCl, 1.8 mM CaCl2, 1 mM MgCl2, 10 mM HEPES, 10 mM glucose, pH 7.4). Then cells were centrifuged again at 450 rpm for another 5 minutes. Finally cells were resuspended in 4 ml the External Buffer, cell number was counted using a hemacytometer. Cell suspension was diluted to 2.5×10^6 cells/ml with the External Buffer. 4 ml of the resuspended cells were added to the cell reservoir in IonWorks. The Internal solution used contains: 40 mM KCl, 100 mM K-Gluconate, 3.2 mM MgCl2, 2 mM CaCl2, 5 mM HEPES, pH 7.25 (adjusted with KOH). […]
hERG currents were recorded on IonWorks Quattro (Molecular Devices). […] Tail currents were measured during an ensuing return to −35 mV. […]

The target in data set [2] is T1, hERG ion channels. Kind of data set: Label-free RWG biosensor (Epic) DMR assay, agonism mode, HT29 cells endogenously expressing hERG. Particulars: 10 micromolar.
Text: as §1, §2, §3, §4, §5
In data set [3] the target is T1, hERG ion channels. In words: Label-free biosensor hERG modulator classification from profiles in HT29, HEK-hERG and HEK293 cells plus mallotoxin modulation. Particulars: label-free biosensor cellular assays.
Text: Label-free RWG biosensor cellular assays were developed to directly assaying the activation and its subsequent signaling of hERG channels without applying voltages to the cells. […] Generally, the disclosed methods to characterize modulators acting directly through hERG ion channel, or indirectly via hERG-associated signaling complexes are related to label-free biosensor cellular assays. Disclosed is the use of three types of cells: a cancerous cell line endogenously expressing hERG ion channels, a native cell line without endogenous hERG channels and its engineered cell line overexpressing hERG channels, for characterizing hERG modulators. Also disclosed is the use of mallotoxin or other hERG activator as a readout to further confirm the modes of action of hERG modulators.
as §5
For data set [4], the target named is T1, hERG ion channels. In words: Rb+ flux assay using HEK-hERG cells. Particulars: 5 mM KCl, modulators at 10 or 50 micromolar (FIG. 3).
Experimental: Briefly, 50,000 cells per well were plated in 96-well tissue culture treated plates 20 hours before assay. In the next day, cells were incubated with complete cell culture medium containing 5 mM RbCl for 3 hours at 37° C. with 5% CO2. Then compounds (10×) diluted in HBSS were added into the cell culture medium and cells were incubated at 37° C. with 5% CO2 for another hour. Cells were washed twice with Rb^+ free cell culture medium and incubated with 180 μl/well of cell culture medium containing different concentration of KCl for exactly 10 minutes. The supernatant from each well was transferred to a new 96 well plate immediately. Cells were lysed with 180 μl/well 0.5% Triton100 in HBSS. The Rb^+ concentration of each sample was determined by ICR8000 (Aurora Biomed Inc.).
Data set [5] concerns the target T1, hERG ion channels. Kind of data set: DMR antagonism mode: modulation of the mallotoxin DMR signal in HT29 cells.
The target of data set [6] is T1, hERG ion channels. Kind of data set: DMR antagonism mode: modulation of the mallotoxin DMR signal in HEK-hERG cells.
[7] abbreviates: molecule 10 micromolar, mallotoxin 16 micromolar.
[8] abbreviates: score assigned from % modulation of mallotoxin DMR (10% = 1).

T1 sequence (Q12809 whole entry): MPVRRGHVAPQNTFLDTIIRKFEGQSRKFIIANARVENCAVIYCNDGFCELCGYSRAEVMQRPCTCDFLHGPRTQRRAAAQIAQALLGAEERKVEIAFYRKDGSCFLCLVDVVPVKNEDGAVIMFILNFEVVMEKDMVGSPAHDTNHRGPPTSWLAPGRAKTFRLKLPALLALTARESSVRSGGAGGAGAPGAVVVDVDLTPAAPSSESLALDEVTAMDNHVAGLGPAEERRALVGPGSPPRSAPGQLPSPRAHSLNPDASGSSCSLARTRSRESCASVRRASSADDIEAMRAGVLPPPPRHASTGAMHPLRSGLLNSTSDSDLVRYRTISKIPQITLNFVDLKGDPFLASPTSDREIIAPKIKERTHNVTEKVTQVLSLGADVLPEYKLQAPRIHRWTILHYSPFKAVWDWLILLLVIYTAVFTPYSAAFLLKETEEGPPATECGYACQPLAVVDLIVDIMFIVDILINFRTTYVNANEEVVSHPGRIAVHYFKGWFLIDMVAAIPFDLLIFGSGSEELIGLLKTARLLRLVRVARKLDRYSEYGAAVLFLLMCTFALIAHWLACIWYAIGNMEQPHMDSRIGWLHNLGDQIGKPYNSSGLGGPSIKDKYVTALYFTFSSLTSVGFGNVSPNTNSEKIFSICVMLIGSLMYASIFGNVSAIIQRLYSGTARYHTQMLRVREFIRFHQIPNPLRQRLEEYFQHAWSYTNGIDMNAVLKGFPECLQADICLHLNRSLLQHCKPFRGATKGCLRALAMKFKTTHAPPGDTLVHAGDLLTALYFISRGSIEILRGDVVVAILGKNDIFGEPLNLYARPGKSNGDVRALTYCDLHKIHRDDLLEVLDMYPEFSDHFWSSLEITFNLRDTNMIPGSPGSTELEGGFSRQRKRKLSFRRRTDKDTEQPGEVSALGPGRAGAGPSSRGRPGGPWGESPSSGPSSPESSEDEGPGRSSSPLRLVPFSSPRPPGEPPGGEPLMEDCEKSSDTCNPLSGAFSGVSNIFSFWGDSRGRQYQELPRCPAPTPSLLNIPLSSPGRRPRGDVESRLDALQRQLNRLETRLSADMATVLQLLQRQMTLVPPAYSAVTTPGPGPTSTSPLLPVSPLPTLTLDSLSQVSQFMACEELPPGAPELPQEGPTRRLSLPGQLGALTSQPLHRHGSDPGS
Chain of hERG channel (Q12809 whole entry): as above

For `O=C(O)c1ccccc1Nc1cccc(C(F)(F)F)c1` [flufenamic acid], the “DMR signal in HEK-hERG cells” value at hERG ion channels [1] is listed as “robust DMR signals”. Also, the “effect on hERG current (tail current)” value on hERG channel was “weak hERG current activator; also recorded: potentiated”. Also, the “DMR signal in HT29 cells” value on hERG ion channels [2] is recorded as “robust DMR signals”. The “class of hERG modulator assigned” value on hERG ion channels [3] is “hERG pathway activator, a label free biosensor hERG activator; also recorded: weak hERG activator”. At hERG ion channels [4], the “Rb+ flux signal” value was “weak hERG ion flux activator; also recorded: small and dose-dependent increase”. In addition, at hERG ion channels [5] (setting [7]), the “modulation index against the mallotoxin DMR signal in HT29” value is listed as −90%. On hERG ion channels [5] (molecule 10 micromolar, mallotoxin 16 micromolar, antagonism assay), the “effect on the mallotoxin DMR signal in HT29 cells (in words)” value is “selectively attenuated”. In addition, the “score of modulation index, HT29 coordinate” value at hERG ion channels [5] (setting [8]) is −9. Besides, the “modulation index against the mallotoxin DMR signal in HEK-hERG” value on hERG ion channels [6] (setting [7]) is given as “~+12%”. The “score of modulation index, HEK-hERG coordinate” value on hERG ion channels [6] (setting [8]) was determined as 1.
